Source: the NIST ThermoML archive (doi:10.1016/j.jct.2015.07.042)
Numbers after ± are expanded uncertainties.

Test: activity coefficient (dimensionless); of the first substance listed, at infinite dilution; xn = mol fraction of the nth substance listed
Details: 101 kPa, Liquid, Chromatography, x1 = 0

| Structure (SMILES) | activity coefficient (358.15 K) | activity coefficient (368.15 K) | activity coefficient (378.15 K) | activity coefficient (388.15 K) | activity coefficient (398.15 K) | activity coefficient (408.15 K) | activity coefficient (418.15 K) | activity coefficient (428.15 K) |
| --- | --- | --- | --- | --- | --- | --- | --- | --- |
| CCC[N+](=O)[O-] [1-nitropropane] + CCCCn1cc[n+](C)c1.COP(=O)([O-])OC | 1.5 ± 0.1 | 1.56 ± 0.1 | 1.62 ± 0.11 | 1.72 ± 0.12 |  |  |  |  |
| CCCCCCCCCC [decane] + CCCCn1cc[n+](C)c1.COP(=O)([O-])OC | 93.4 ± 6.4 | 88.5 ± 6.1 | 84.7 ± 5.8 | 81.6 ± 5.6 |  |  |  |  |
| C1CCCCCC1 [cycloheptane] + CCCCn1cc[n+](C)c1.[Cl-] | 62.7 ± 4.3 | 58.8 ± 4 | 55.4 ± 3.8 | 53.6 ± 3.7 |  |  |  |  |
| CCCCO [butan-1-ol] + CCCCn1cc[n+](C)c1.[Cl-] |  |  |  |  | 0.558 ± 0.04 | 0.594 ± 0.042 | 0.635 ± 0.044 | 0.68 ± 0.046 |
| CCC(=O)OC [methyl propanoate] + CCCCn1cc[n+](C)c1.COP(=O)([O-])OC | 3.56 ± 0.24 | 3.65 ± 0.25 | 3.76 ± 0.26 | 3.93 ± 0.27 |  |  |  |  |
| CCO [ethanol] + CCCCn1cc[n+](C)c1.COP(=O)([O-])OC |  |  |  |  | 0.16 ± 0.029 | 0.173 ± 0.029 | 0.189 ± 0.029 | 0.205 ± 0.029 |
| COC(C)(C)C [2-methoxy-2-methylpropane] + CCCCn1cc[n+](C)c1.COP(=O)([O-])OC | 7.17 ± 0.49 | 7.35 ± 0.5 | 7.48 ± 0.51 | 7.66 ± 0.52 |  |  |  |  |
| CCOC(C)(C)C [2-ethoxy-2-methylpropane] + CCCCn1cc[n+](C)c1.CS(=O)(=O)[O-] | 35.3 ± 2.4 | 35.6 ± 2.4 | 36.1 ± 2.5 | 36.6 ± 2.5 |  |  |  |  |
| CCCO [propan-1-ol] + CCCCn1cc[n+](C)c1.COP(=O)([O-])OC |  |  |  |  | 0.197 ± 0.029 | 0.218 ± 0.029 | 0.239 ± 0.029 | 0.264 ± 0.03 |
| C1CCOC1 [tetrahydrofuran] + CCCCn1cc[n+](C)c1.CS(=O)(=O)[O-] | 3.41 ± 0.23 | 3.48 ± 0.24 | 3.59 ± 0.24 | 3.72 ± 0.25 |  |  |  |  |
| CC(C)=O [acetone] + CCCCn1cc[n+](C)c1.[Cl-] | 3.05 ± 0.21 | 3.12 ± 0.21 | 3.17 ± 0.22 | 3.27 ± 0.22 |  |  |  |  |
| CCCC(C)=O [pentan-2-one] + CCCCn1cc[n+](C)c1.COP(=O)([O-])OC | 3.63 ± 0.25 | 3.7 ± 0.25 | 3.78 ± 0.26 | 3.94 ± 0.27 |  |  |  |  |
| COC(C)(C)C [2-methoxy-2-methylpropane] + CCCCn1cc[n+](C)c1.[Cl-] | 24.6 ± 1.7 | 23.8 ± 1.6 | 23 ± 1.6 | 22.9 ± 1.6 |  |  |  |  |
| CCOCC [diethyl ether] + CCCCn1cc[n+](C)c1.CS(=O)(=O)[O-] | 14.7 ± 1 | 14.9 ± 1 | 15 ± 1 | 15.3 ± 1.1 |  |  |  |  |
| CCCCCCCCC [nonane] + CCCCn1cc[n+](C)c1.[Cl-] | 476 ± 33 | 433 ± 30 | 394 ± 27 | 376 ± 26 |  |  |  |  |
| CCOC(C)=O [ethyl acetate] + CCCCn1cc[n+](C)c1.COP(=O)([O-])OC | 3.81 ± 0.26 | 3.91 ± 0.27 | 4.01 ± 0.27 | 4.18 ± 0.28 |  |  |  |  |
| C1CCCCCCC1 [cyclooctane] + CCCCn1cc[n+](C)c1.[Cl-] | 79.5 ± 5.5 | 75.4 ± 5.2 | 71.1 ± 4.9 | 68.6 ± 4.7 |  |  |  |  |
| CCCCCCCCCC [decane] + CCCCn1cc[n+](C)c1.CS(=O)(=O)[O-] | 371 ± 26 | 352 ± 24 | 340 ± 23 | 324 ± 22 |  |  |  |  |
| Cc1ccc(C)cc1 [1,4-dimethylbenzene] + CCCCn1cc[n+](C)c1.COP(=O)([O-])OC | 6.31 ± 0.43 | 6.44 ± 0.44 | 6.59 ± 0.45 | 6.86 ± 0.47 |  |  |  |  |
| Cc1cccc(C)c1 [1,3-dimethylbenzene] + CCCCn1cc[n+](C)c1.[Cl-] | 14.3 ± 0.98 | 14.5 ± 0.99 | 14.7 ± 1 | 15 ± 1 |  |  |  |  |
| C#CCCC [1-pentyne] + CCCCn1cc[n+](C)c1.COP(=O)([O-])OC | 2.18 ± 0.15 | 2.32 ± 0.16 | 2.46 ± 0.17 | 2.6 ± 0.18 |  |  |  |  |
| CC(C)OC(C)C [diisopropyl ether] + CCCCn1cc[n+](C)c1.CS(=O)(=O)[O-] | 40.6 ± 2.8 |  | 40.8 ± 2.8 | 41.2 ± 2.8 |  |  |  |  |
| CCCCCCCC [octane] + CCCCn1cc[n+](C)c1.[Cl-] | 331 ± 23 | 302 ± 21 | 268 ± 18 | 258 ± 18 |  |  |  |  |
| c1ccncc1 [pyridine] + CCCCn1cc[n+](C)c1.COP(=O)([O-])OC | 1.18 ± 0.08 | 1.23 ± 0.08 | 1.28 ± 0.08 | 1.35 ± 0.09 |  |  |  |  |
